Results on eight molecules are retold here after ChEMBL document CHEMBL1201862, “PubChem BioAssay data set” (2004).

Structures are written as SMILES. Active and inactive are the calls of the source. A value given as a limit tells only on which side of the number the result lay.

A short description of experiment [1]: viability loss in THP-1 monocytes – THP-1 cells, cytotoxicity control for Vif-APOBEC3G degradation inhibitor project, dose response (AID 1117359). Conditions: THP-1. It is filed as functional.
The target of experiment [2] is Sphingosine 1-phosphate receptor 2 (Homo sapiens, UniProt O95136). Kind of experiment: Dose Response Cell Based Assay for Antagonists of the S1P2 Receptor. [Related pubchem assays: 856, 736 ]. Type of experiment: functional.
Sphingosine 1-phosphate receptor 2, sequence (O95136 whole entry): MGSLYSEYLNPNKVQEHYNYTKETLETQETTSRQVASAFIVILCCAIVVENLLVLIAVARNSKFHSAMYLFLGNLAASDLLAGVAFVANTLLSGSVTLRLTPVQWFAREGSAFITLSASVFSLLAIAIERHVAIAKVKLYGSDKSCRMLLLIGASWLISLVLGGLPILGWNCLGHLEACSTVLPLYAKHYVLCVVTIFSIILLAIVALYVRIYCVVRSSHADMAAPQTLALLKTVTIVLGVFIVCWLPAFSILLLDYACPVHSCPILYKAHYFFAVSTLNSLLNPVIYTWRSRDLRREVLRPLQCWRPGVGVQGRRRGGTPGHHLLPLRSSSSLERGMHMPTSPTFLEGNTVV
A further experiment has as its system INS1. Kind of experiment: INS-1E survival protection against cytokine death – cell-based, luminescence, retest, dose response (AID 449756).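 Also: cell death triggered by IL-1 beta plus TNF-alpha plus IFN-gamma mixture; protective hits raise ATP signal compared with cytokine alone wells.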 It is filed as functional. The following applies: Rattus norvegicus.
Experiment [3] concerns the target NAD-dependent protein deacylase sirtuin-5, mitochondrial (Homo sapiens, UniProt Q9NXA8). Kind of experiment: sirtuin-5 deacylation blockers, concentration series – biochemical, fluorescence imaging, cherry-pick, set 5, dose response (AID 720591).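 Also: desuccinylation of succinyl peptide AMC substrate read as fluorescence after trypsin release; potency of inhibitors that lower fluorescence and may act on trypsin instead.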
Experiment [4] is described as follows: CellTiter-Glo luminescence survival assay, SW480 colon tumor line, concentration-response curve, half-maximal inhibitory concentration (AID 1117338). It is filed as functional.
Experiment [5] is described as follows: RKO cell viability reduction, dose response, CellTiter-Glo luminescence (AID 1117322). Type of experiment: functional.
Experiment [6] is described as follows: cytotoxicity toward HCT116 cells – cell-based, CellTiter-Glo luminescence, IC50, dose response (AID 1117332). It is filed as functional. Conditions: HCT-116.
Experiment [7] can be described thus: SNU-C1 cell viability reduction, dose response, CellTiter-Glo luminescence (AID 1117323). Type of experiment: functional, cell-based.
A short description of experiment [8]: glucagon-like peptide-1 release potency in STC-1, concentration-response, half-maximal inhibitory concentration in the STC-1 line (AID 1117345). Type of experiment: functional, cell-based.
Experiment [9] is described as follows: cytotoxicity toward Colo320 cells – cell-based, CellTiter-Glo luminescence, IC50, dose response (AID 1117334). Type of experiment: functional. The following applies: COLO 320.
The nature of experiment [10]: cytotoxicity toward HT-29 cells – cell-based, CellTiter-Glo luminescence, IC50, dose response (AID 1117330). It is filed as functional.
Experiment [11] in a line: Reduced DLD-1 viability, concentration-response, CellTiter-Glo luminescence (AID 1117352). It is filed as functional.
A short description of experiment [12]: HCT116 cell viability decrease, GSK3B pretreatment – CellTiter-Glo, IC50, dose response (AID 1117339). It is filed as functional. The following applies: HCT-116.
A short description of experiment [13]: Potency on glucagon-like peptide 1 release, dose-response in NCI-H716 cell line, half maximal inhibitory concentration (AID 1117344). Type of experiment: functional, cell-based.
A short description of experiment [14]: viability loss in Vero cells – cytotoxicity control for Vif-APOBEC3G degradation inhibitor project, dose response (AID 1117358). Conditions: Vero. Type of experiment: functional.
The target in experiment [15] is T1, DNA repair protein RAD52 homolog (Homo sapiens, UniProt P43351).
T1 sequence (P43351 whole entry): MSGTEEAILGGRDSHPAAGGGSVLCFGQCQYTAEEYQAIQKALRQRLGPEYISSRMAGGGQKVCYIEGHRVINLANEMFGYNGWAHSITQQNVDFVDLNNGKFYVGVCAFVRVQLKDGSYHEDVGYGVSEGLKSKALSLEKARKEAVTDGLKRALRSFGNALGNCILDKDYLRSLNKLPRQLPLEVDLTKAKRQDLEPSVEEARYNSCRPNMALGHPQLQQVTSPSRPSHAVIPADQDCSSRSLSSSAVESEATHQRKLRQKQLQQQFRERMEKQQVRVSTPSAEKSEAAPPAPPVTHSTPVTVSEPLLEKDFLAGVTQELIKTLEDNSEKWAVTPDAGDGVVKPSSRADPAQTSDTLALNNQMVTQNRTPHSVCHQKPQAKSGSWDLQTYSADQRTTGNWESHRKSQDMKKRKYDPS
Type of experiment: functional, biochemical.

Experiment [16] deals with RNA-editing ligase 1, mitochondrial (Trypanosoma brucei brucei, UniProt P86926). Kind of experiment: inhibition of trypanosome RNA editing ligase – biochemical, fluorescence, Trypanosoma brucei, dose response (AID 1117295). Type of experiment: functional.
RNA-editing ligase 1, mitochondrial, sequence (P86926 whole entry): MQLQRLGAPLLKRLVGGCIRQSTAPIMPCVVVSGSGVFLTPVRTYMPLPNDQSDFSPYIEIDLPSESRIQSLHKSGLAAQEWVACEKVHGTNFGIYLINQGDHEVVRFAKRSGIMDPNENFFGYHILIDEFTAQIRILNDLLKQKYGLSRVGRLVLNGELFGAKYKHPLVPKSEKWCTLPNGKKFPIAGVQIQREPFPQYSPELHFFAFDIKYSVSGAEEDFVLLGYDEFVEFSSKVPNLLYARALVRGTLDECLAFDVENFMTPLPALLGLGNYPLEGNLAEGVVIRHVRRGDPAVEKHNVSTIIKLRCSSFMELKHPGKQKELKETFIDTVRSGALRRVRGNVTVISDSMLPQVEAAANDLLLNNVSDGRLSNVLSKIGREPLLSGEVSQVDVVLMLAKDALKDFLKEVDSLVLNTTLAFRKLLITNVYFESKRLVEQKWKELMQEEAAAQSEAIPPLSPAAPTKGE
Experiment [17] in a line: intracellular Trypanosoma cruzi inhibitors in host cells – cell-based, plate reader, cherry-pick samples, set 3, dose response (AID 651818).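 Also: compounds incubated with infected cells for about four days.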 Type of experiment: functional.
The next experiment has as its target Paired box protein Pax-8 (Homo sapiens, UniProt Q06710). Put plainly: PAX8 transcriptional activity inhibition in RMG-I – RMG-I cells, luciferase, cherry-pick, dose response (AID 687027).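 Also: luciferase reporter driven by Pax8 target thyroperoxidase promoter measured by SteadyGlo luminescence.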 Type of experiment: functional, cell-based.
Experiment [18] is described as follows: inhibitors acting on PAX2 in cells – cell-based, plate reader, dry powder samples, selectivity assay for PAX8 inhibitor project, dose response (AID 743048).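 Also: HEK293 cells carrying a WT1 promoter luciferase reporter driven by expressed Pax2; potency is for inhibition of Pax2 driven reporter signal.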 Type of experiment: functional.
Experiment [19] in a line: OVCAR-3 cell viability loss – plate reader, dry powder samples, PAX8 inhibitor project, dose response (AID 743044). Type of experiment: functional, cell-based.
The nature of experiment [20]: PAX5 cellular inhibition readout – cell-based, plate reader, dry powder samples, selectivity assay for PAX8 inhibitor project, dose response (AID 743047).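 Also: HEK293 cells carrying a Pax5 driven CD19 promoter luciferase reporter; potency of inhibitors that lower reporter luminescence.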 Type of experiment: functional.
A short description of experiment [21]: OVCAR4 cell viability loss – plate reader, dry powder, SA11, cytotoxicity control for PAX8 inhibitor project, dose response (AID 743150). It is filed as functional, cell-based. Conditions: OVCAR-4.
Experiment [22] in a line: OV-90 cell viability loss – plate reader, dry powder, SA8, PAX8 inhibitor project, dose response (AID 743149). Type of experiment: functional, cell-based.
Experiment [23] can be described thus: PAX8-dependent cell viability loss – plate reader, dry powder, dose response (AID 743049). It is filed as functional, cell-based.
Another experiment addresses T2, Protein skinhead-1 (Caenorhabditis elegans, UniProt P34707).
T2 sequence (P34707 whole entry): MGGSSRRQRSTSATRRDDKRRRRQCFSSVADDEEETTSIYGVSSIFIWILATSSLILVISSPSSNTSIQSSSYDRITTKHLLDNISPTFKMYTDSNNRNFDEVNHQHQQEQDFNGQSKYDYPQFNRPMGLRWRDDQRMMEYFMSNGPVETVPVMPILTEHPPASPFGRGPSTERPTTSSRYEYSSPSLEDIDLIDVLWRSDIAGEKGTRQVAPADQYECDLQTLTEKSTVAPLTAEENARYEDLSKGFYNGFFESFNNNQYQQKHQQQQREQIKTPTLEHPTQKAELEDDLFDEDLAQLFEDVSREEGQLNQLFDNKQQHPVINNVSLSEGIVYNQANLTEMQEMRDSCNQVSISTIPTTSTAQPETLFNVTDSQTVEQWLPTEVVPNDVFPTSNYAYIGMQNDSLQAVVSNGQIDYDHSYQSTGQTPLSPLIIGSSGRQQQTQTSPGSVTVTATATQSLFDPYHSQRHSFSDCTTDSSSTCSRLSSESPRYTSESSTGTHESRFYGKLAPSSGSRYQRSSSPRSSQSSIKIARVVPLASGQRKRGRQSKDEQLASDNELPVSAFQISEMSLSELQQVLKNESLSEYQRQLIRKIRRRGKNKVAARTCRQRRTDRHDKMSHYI
It is filed as functional.

In experiment [24] the target is Oxysterols receptor LXR-beta (Homo sapiens, UniProt P55055). Type of experiment: functional, cell-based.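 Also: Cell-based luminescence dose-response assay of agonist activity at LXR, run as a confirmatory counterscreen to a daf-12 agonist screen; HEK293 cells with Gal4-LXR fusion and GAL4-driven luciferase reporter; agonist potency from rising luciferase signal of a Gal4-LXR reporter.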
Oxysterols receptor LXR-beta, sequence (P55055 whole entry, the tested form may be a part): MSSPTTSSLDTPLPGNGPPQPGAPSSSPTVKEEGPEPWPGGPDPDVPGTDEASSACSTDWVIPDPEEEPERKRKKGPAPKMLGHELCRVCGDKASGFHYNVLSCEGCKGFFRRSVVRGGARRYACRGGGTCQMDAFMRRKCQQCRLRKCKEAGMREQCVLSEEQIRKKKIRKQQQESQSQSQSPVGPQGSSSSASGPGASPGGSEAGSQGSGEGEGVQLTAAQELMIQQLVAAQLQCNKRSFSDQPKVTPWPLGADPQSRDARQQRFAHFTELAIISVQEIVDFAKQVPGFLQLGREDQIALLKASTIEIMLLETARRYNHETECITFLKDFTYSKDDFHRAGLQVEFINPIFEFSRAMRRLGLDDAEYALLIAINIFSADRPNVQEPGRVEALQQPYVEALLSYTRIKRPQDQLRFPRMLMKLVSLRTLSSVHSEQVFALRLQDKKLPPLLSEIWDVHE

NAD-dependent protein deacylase sirtuin-5, mitochondrial, sequence (Q9NXA8 whole entry): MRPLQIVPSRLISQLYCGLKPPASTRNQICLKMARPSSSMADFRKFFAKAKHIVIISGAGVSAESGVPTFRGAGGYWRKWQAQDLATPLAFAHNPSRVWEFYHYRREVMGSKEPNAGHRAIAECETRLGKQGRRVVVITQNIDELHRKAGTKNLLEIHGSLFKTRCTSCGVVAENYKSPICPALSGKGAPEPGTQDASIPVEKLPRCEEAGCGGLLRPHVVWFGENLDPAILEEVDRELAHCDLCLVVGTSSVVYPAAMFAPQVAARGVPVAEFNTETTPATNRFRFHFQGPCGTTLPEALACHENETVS
Paired box protein Pax-8, sequence (Q06710 whole entry): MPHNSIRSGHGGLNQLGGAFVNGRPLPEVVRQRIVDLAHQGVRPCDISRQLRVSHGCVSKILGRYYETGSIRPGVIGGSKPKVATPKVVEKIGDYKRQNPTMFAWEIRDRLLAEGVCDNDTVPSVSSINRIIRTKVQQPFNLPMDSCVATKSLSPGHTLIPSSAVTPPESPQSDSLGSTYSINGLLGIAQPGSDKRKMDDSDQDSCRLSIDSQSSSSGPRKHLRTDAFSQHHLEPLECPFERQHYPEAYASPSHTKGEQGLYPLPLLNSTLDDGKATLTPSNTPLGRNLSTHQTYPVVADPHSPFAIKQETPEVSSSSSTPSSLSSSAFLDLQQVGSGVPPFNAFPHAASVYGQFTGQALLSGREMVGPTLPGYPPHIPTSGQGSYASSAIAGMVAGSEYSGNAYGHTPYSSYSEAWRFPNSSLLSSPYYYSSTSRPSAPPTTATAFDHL

In the case of `Cc1cc(N(CCCl)CCCl)ccc1C=NNC(=O)c1cccnc1`, the CC50 in experiment [1] was 20 µM (active).
Regarding `Cc1ccc(-c2nn(-c3ccccc3)cc2/C=N/NC(=O)c2ccc(Br)o2)cc1`, the IC50 in experiment [2] was 3.36 µM (active). Also, the AC50 with INS1 was 0.716 µM (active).
For `COc1ccc(CN(C(=O)c2ccco2)c2ccc(C)c(C)c2)cc1`, the AC50 in experiment [3] is 24.7 µM (active).
As to `Clc1ccc(C(Cn2ccnc2)OCc2c(Cl)cccc2Cl)c(Cl)c1` (stereo not drawn) [ISOCONAZOLE], the IC50 was 2.6 µM (active) in [4]; 4.01 µM (active) in experiment [5]; 1.59 µM (active) in [6]; 0.886 µM (active) in experiment [7]; > 40 µM (inactive) in [8]; 1.82 µM (active) in experiment [9]. Besides, the IC50 in [10] was 5 µM (inactive); in [11] it was 2.36 µM (active); in [12] it was 1.4 µM (active); in [13] it was > 40 µM (inactive).
As to `O=C(CSc1nc2cc(Cl)ccc2s1)N1CCN(C(=O)c2ccco2)CC1`, in experiment [14], the CC50 is > 40 µM (active).
On to `COc1ccccc1N(Cc1ccccc1)S(=O)(=O)c1cccc(C(=O)NC2CC(C)(C)NC(C)(C)C2)c1`, for which the half-maximal activity concentration (AC50) in experiment [15] is 13.4 µM (active). Also, the IC50 in experiment [16] is > 96.6 µM (inactive).
Turning to `COc1ccc(S(=O)(=O)Nc2ccc3c(c2)CC(=O)N([C@@H](C)CO)C[C@H](C)[C@@H](CN(C)Cc2ccc(C(F)(F)F)cc2)O3)cc1`, the AC50 is 3.67 µM (active) in experiment [17]; 6.21 µM (active) at Paired box protein Pax-8; 20 µM (active) in [18]; 49.1 µM (active) in experiment [19]; 21.7 µM (active) in experiment [20]; 59.7 µM (active) in experiment [21]. Moreover, the values for the AC50 in experiment [22] and in experiment [23] were > 70 µM (inactive) and 31.3 µM (active), respectively.
Take `Clc1ccc(C=Cc2ccccn2)c(Cl)c1`: on Protein skinhead-1, the IC50 was 4.24 µM (active). Further, the EC50 (in experiment [24]; in the experiment “cells”) was > 67.6 µM (inactive) in each case.
